{
  "source": "paper PMC12888861",
  "about": "“Antibacterial activity of enmetazobactam against Acinetobacter spp.: a molecular dissection of mechanism of action and resistance determinants” (Antimicrobial Agents and Chemotherapy, 2025)",
  "tested_on": "A. non-baumannii isolates (n = 87)",
  "assay": "MIC, broth microdilution (EUCAST), A. non-baumannii isolates",
  "assay_type": "cell-based, Acinetobacter spp. (non-baumannii)",
  "settings": "for MIC: read-out: MIC",
  "description": "The bacterial strains used in this study comprised 208 clinical isolates from the Spanish National Acinetobacter spp. 2020 Multicenter Collection, which was previously characterized in detail by our research group, including whole-genome sequencing, phylogenetics studies, clonal dynamics, and resistance mechanisms ([2], [29]). Additionally, a collection of A. baumannii ATCC 17978 transformants coding the blaOXA-23, blaOXA-24/40, blaOXA-51, blaOXA-58, blaOXA-143, and blaOXA-201 genes, previously constructed and described by our group ([30]), was used to determine the activity of enmetazobactam against strains carrying the main CHDLs of A. baumannii.\nThe antimicrobial susceptibility of the 208 Acinetobacter spp. isolates was assessed using the broth microdilution method, as described in the European Committee on Antimicrobial Susceptibility Testing (EUCAST) v.15 guidelines (http://www.eucast.org/clinical_breakpoints). […] MICs for enmetazobactam alone were assessed as well. […] Subsequently, MIC testing was also conducted with a collection of A. baumannii ATCC 17978 transformants expressing clinically relevant OXA-like carbapenemase genes.\nThe A. baumannii ATCC 19606 strain was used as the reference strain in all susceptibility experiments, in duplicate assays. Antibiotics were purchased from Sigma-Aldrich, except enmetazobactam and durlobactam, which were obtained from Advanz Pharma and MedChemExpress, respectively.",
  "key": {"[1]": {"settings": "Acinetobacter, A. non-baumannii isolates (n=87), ETZ fixed 8 mg/L in combinations"}},
  "note": "Where two headings read alike, the source gives them in different places.",
  "data": [
    {"smiles": "C[n+]1ccn(C[C@@]2(C)[C@H](C(=O)[O-])N3C(=O)C[C@H]3S2(=O)=O)n1", "note": "[enmetazobactam]", "values": [
      {"measurement": "MIC", "setting": "Acinetobacter pittii, isolate NO-Ab97, Acinetobacter pittii, in combinations ETZ fixed at 8 mg/L", "value": 2, "unit": "µg/mL"},
      {"measurement": "MIC", "setting": "Acinetobacter pittii, isolate NO-Ab105, Acinetobacter pittii, in combinations ETZ fixed at 8 mg/L", "value": 2, "unit": "µg/mL"},
      {"measurement": "MIC", "setting": "Acinetobacter pittii, isolate NO-Ab106, Acinetobacter pittii, in combinations ETZ fixed at 8 mg/L", "value": 2, "unit": "µg/mL"},
      {"measurement": "MIC", "setting": "Acinetobacter pittii, isolate NO-Ab107, Acinetobacter pittii, in combinations ETZ fixed at 8 mg/L", "value": 1, "unit": "µg/mL"},
      {"measurement": "MIC", "setting": "Acinetobacter pittii, isolate NO-Ab111, Acinetobacter pittii, in combinations ETZ fixed at 8 mg/L", "value": 2, "unit": "µg/mL"},
      {"measurement": "MIC", "setting": "Acinetobacter pittii, isolate NO-Ab113, Acinetobacter pittii, in combinations ETZ fixed at 8 mg/L", "value": 2, "unit": "µg/mL"},
      {"measurement": "MIC", "setting": "Acinetobacter pittii, isolate NO-Ab118, Acinetobacter pittii, in combinations ETZ fixed at 8 mg/L", "value": 2, "unit": "µg/mL"},
      {"measurement": "MIC", "setting": "Acinetobacter pittii, isolate NO-Ab135, Acinetobacter pittii, in combinations ETZ fixed at 8 mg/L", "value": 2, "unit": "µg/mL"},
      {"measurement": "MIC", "setting": "Acinetobacter pittii, isolate NO-Ab145, Acinetobacter pittii, in combinations ETZ fixed at 8 mg/L", "value": 2, "unit": "µg/mL"},
      {"measurement": "MIC", "setting": "Acinetobacter pittii, isolate NO-Ab151, Acinetobacter pittii, in combinations ETZ fixed at 8 mg/L", "value": 4, "unit": "µg/mL"},
      {"measurement": "MIC", "setting": "Acinetobacter pittii, isolate NO-Ab154, Acinetobacter pittii, in combinations ETZ fixed at 8 mg/L", "value": 2, "unit": "µg/mL"},
      {"measurement": "MIC", "setting": "Acinetobacter pittii, isolate NO-Ab157, Acinetobacter pittii, in combinations ETZ fixed at 8 mg/L", "value": 4, "unit": "µg/mL"},
      {"measurement": "MIC", "setting": "Acinetobacter pittii, isolate NO-Ab162, Acinetobacter pittii, in combinations ETZ fixed at 8 mg/L", "value": 4, "unit": "µg/mL"},
      {"measurement": "MIC", "setting": "Acinetobacter pittii, isolate NO-Ab164, Acinetobacter pittii, in combinations ETZ fixed at 8 mg/L", "value": 2, "unit": "µg/mL"},
      {"measurement": "MIC", "setting": "Acinetobacter pittii, isolate NO-Ab178, Acinetobacter pittii, in combinations ETZ fixed at 8 mg/L", "value": 2, "unit": "µg/mL"},
      {"measurement": "MIC", "setting": "Acinetobacter pittii, isolate NO-Ab197, Acinetobacter pittii, in combinations ETZ fixed at 8 mg/L", "value": 2, "unit": "µg/mL"},
      {"measurement": "MIC", "setting": "Acinetobacter proteolyticus, isolate NO-Ab99, Acinetobacter proteolyticus, in combinations ETZ fixed at 8 mg/L", "value": 2, "unit": "µg/mL"},
      {"measurement": "MIC", "setting": "Acinetobacter proteolyticus, isolate NO-Ab102, Acinetobacter proteolyticus, in combinations ETZ fixed at 8 mg/L", "value": 4, "unit": "µg/mL"},
      {"measurement": "MIC", "setting": "Acinetobacter proteolyticus, isolate NO-Ab210, Acinetobacter proteolyticus, in combinations ETZ fixed at 8 mg/L", "value": 1, "unit": "µg/mL"},
      {"measurement": "MIC", "setting": "Acinetobacter radioresistens, isolate NO-Ab175, Acinetobacter radioresistens, in combinations ETZ fixed at 8 mg/L", "value": 1, "unit": "µg/mL"},
      {"measurement": "MIC", "setting": "Acinetobacter radioresistens, isolate NO-Ab215, Acinetobacter radioresistens, in combinations ETZ fixed at 8 mg/L", "value": 0.5, "unit": "µg/mL"},
      {"measurement": "MIC", "setting": "Acinetobacter ursingii, isolate NO-Ab3, Acinetobacter ursingii, in combinations ETZ fixed at 8 mg/L", "value": 0.25, "unit": "µg/mL"},
      {"measurement": "MIC", "setting": "Acinetobacter ursingii, isolate NO-Ab64, Acinetobacter ursingii, in combinations ETZ fixed at 8 mg/L", "value": 1, "unit": "µg/mL"},
      {"measurement": "MIC", "setting": "Acinetobacter ursingii, isolate NO-Ab87, Acinetobacter ursingii, in combinations ETZ fixed at 8 mg/L", "value": 0.5, "unit": "µg/mL"},
      {"measurement": "MIC", "setting": "Acinetobacter ursingii, isolate NO-Ab103, Acinetobacter ursingii, in combinations ETZ fixed at 8 mg/L", "value": 0.5, "unit": "µg/mL"},
      {"measurement": "MIC", "setting": "Acinetobacter ursingii, isolate NO-Ab119, Acinetobacter ursingii, in combinations ETZ fixed at 8 mg/L", "value": 8, "unit": "µg/mL"},
      {"measurement": "MIC", "setting": "Acinetobacter ursingii, isolate NO-Ab120, Acinetobacter ursingii, in combinations ETZ fixed at 8 mg/L", "value": 1, "unit": "µg/mL"},
      {"measurement": "MIC", "setting": "Acinetobacter ursingii, isolate NO-Ab123, Acinetobacter ursingii, in combinations ETZ fixed at 8 mg/L", "value": 2, "unit": "µg/mL"},
      {"measurement": "MIC", "setting": "Acinetobacter ursingii, isolate NO-Ab126, Acinetobacter ursingii, in combinations ETZ fixed at 8 mg/L", "value": 0.5, "unit": "µg/mL"},
      {"measurement": "MIC", "setting": "Acinetobacter ursingii, isolate NO-Ab147, Acinetobacter ursingii, in combinations ETZ fixed at 8 mg/L", "value": 4, "unit": "µg/mL"},
      {"measurement": "MIC", "setting": "Acinetobacter ursingii, isolate NO-Ab155, Acinetobacter ursingii, in combinations ETZ fixed at 8 mg/L", "value": 4, "unit": "µg/mL"},
      {"measurement": "MIC", "setting": "Acinetobacter ursingii, isolate NO-Ab165, Acinetobacter ursingii, in combinations ETZ fixed at 8 mg/L", "value": 2, "unit": "µg/mL"},
      {"measurement": "MIC", "setting": "Acinetobacter ursingii, isolate NO-Ab166, Acinetobacter ursingii, in combinations ETZ fixed at 8 mg/L", "value": 0.5, "unit": "µg/mL"},
      {"measurement": "MIC", "setting": "Acinetobacter ursingii, isolate NO-Ab214, Acinetobacter ursingii, in combinations ETZ fixed at 8 mg/L", "value": 0.5, "unit": "µg/mL"},
      {"measurement": "MIC", "setting": "Acinetobacter ursingii, isolate NO-Ab221, Acinetobacter ursingii, in combinations ETZ fixed at 8 mg/L", "value": 1, "unit": "µg/mL"},
      {"measurement": "MIC", "setting": "Acinetobacter ursingii, isolate NO-Ab222, Acinetobacter ursingii, in combinations ETZ fixed at 8 mg/L", "value": 1, "unit": "µg/mL"},
      {"measurement": "MIC", "setting": "Acinetobacter, MBC set, isolate NO-Ab84, A. bereziniae", "value": 1, "unit": "µg/mL"},
      {"measurement": "MIC", "setting": "Acinetobacter, MBC set, isolate NO-Ab88, A. dijkshoorniae", "value": 2, "unit": "µg/mL"},
      {"measurement": "MIC", "setting": "Acinetobacter, isolate NO-Ab146, Acinetobacter iwoffii, in combinations ETZ fixed at 8 mg/L", "value": 4, "unit": "µg/mL"},
      {"measurement": "MIC", "setting": "Acinetobacter, isolate NO-Ab159, Acinetobacter iwoffii, in combinations ETZ fixed at 8 mg/L", "value": 2, "unit": "µg/mL"},
      {"measurement": "MIC50", "setting": "[1]", "value": 2, "unit": "µg/mL"},
      {"measurement": "MIC90", "setting": "[1]", "value": 4, "unit": "µg/mL"},
      {"measurement": "MIC distribution 0.25", "setting": "cumulative share of A. non-baumannii isolates (n=87) at MIC 0.25 mg/L, ETZ fixed 8 mg/L in combinations", "value": 1.1},
      {"measurement": "MIC distribution 0.5", "setting": "cumulative share of A. non-baumannii isolates (n=87) at MIC 0.5 mg/L, ETZ fixed 8 mg/L in combinations", "value": 9.2},
      {"measurement": "MIC distribution 1", "setting": "cumulative share of A. non-baumannii isolates (n=87) at MIC 1 mg/L, ETZ fixed 8 mg/L in combinations", "value": 29.9},
      {"measurement": "MIC distribution 2", "setting": "cumulative share of A. non-baumannii isolates (n=87) at MIC 2 mg/L, ETZ fixed 8 mg/L in combinations", "value": 75.9},
      {"measurement": "MIC distribution 4", "setting": "cumulative share of A. non-baumannii isolates (n=87) at MIC 4 mg/L, ETZ fixed 8 mg/L in combinations", "value": 96.6},
      {"measurement": "MIC distribution 8", "setting": "cumulative share of A. non-baumannii isolates (n=87) at MIC 8 mg/L, ETZ fixed 8 mg/L in combinations", "value": 98.9},
      {"measurement": "MIC distribution 16", "setting": "cumulative share of A. non-baumannii isolates (n=87) at MIC 16 mg/L, ETZ fixed 8 mg/L in combinations", "value": 100},
      {"measurement": "MIC distribution 32", "setting": "cumulative share of A. non-baumannii isolates (n=87) at MIC 32 mg/L, ETZ fixed 8 mg/L in combinations", "value": 100},
      {"measurement": "MIC distribution ≤0.06", "setting": "cumulative share of A. non-baumannii isolates (n=87) at MIC ≤0.06 mg/L, ETZ fixed 8 mg/L in combinations", "value": 0}
    ]}
  ]
}
